The target in this test is HPK1 (Homo sapiens (Human), UniProt Q92918). Kind of test: HPK1 biochemical enzyme assay (microfluidic mobility shift assay). The settings on record: 1.5 nM HPK1, ATP 1 mM final, 30 min preincubation, 60 min at RT, Caliper EZ Reader; read-out: HPK1 1000UMATP caliper IC50. The method, boiled down:
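Mobility shift readout of HPK1 activity after a 60 min RT reaction with 1 mM ATP, 1 μM substrate and 5 mM MgCl2. Enzyme/substrate mix was first exposed to compounds for 30 min, using ten-point curves topping at 3 μM final.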
Sequence of HPK1 (Q92918 whole entry): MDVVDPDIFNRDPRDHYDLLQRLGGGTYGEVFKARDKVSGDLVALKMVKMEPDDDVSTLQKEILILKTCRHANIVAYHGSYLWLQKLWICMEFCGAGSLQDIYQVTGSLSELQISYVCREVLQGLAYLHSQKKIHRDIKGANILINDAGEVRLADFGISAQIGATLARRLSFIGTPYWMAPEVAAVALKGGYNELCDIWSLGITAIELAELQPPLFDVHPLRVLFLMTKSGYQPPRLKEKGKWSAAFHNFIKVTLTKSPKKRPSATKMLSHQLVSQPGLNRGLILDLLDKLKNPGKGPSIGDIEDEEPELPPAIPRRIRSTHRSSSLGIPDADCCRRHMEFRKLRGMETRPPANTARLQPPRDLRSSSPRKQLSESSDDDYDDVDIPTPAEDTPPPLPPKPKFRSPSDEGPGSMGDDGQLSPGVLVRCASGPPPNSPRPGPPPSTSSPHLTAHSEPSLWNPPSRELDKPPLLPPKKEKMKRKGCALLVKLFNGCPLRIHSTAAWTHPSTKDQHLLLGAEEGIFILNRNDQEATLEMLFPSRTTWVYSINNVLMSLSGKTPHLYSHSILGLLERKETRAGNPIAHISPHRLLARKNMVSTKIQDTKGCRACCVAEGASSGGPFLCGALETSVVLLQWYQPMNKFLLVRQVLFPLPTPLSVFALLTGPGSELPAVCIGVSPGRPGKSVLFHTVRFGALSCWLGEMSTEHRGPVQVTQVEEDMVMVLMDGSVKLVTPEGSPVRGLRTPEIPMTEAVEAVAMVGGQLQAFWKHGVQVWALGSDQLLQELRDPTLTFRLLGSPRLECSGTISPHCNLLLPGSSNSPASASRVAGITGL
The IC50 is the midpoint of a concentration-inhibition curve. Take `Cc1ccn2c(-c3ccc(Nc4ccc(N5CC[C@@H](F)[C@H](O)C5)cn4)c4c3CNC4=O)cnc2c1F` [I-583, 7-((5-((3R,4R]-4-fluoro-3-hydroxypiperidin-1-yl)pyridin-2-yl)amino)-4-(8-fluoro-7-methylimidazo [1,2-a]pyridin-3-yl)isoindolin-1-one]: the IC50 was less than 100 nM.
For `Cc1ccn2c(-c3ccc(Nc4ccc(N5CC[C@H](F)[C@@H](O)C5)cn4)c4c3CNC4=O)cnc2c1F` [I-584, 7-((5-((3S.4S)-4-fluoro-3-hydroxypiperidin-1-yl)pyridin-2-yl)amino)-4-(8-fluoro-7-methylimidazo [1,2-a]pyridin-3-yl)isoindolin-1-one] the value was less than 100 nM; for `Cc1ccn2c(-c3ccc(Nc4ccc(C5(O)CCOCC5)cn4)c4c3CNC4=O)cnc2c1F` [I-587, 4-(8-fluoro-7-methylimidazo [1,2-a]pyridin-3-yl)-7-((5-(4-hydroxytetra-hydro-2H-pyran-4-yl)pyridin-2-yl)amino)isoin-dolin-1-one], less than 100 nM.
Under `O=C1NCc2c(-c3ccnn4cccc34)ncc(Nc3ccc(N4CCC(O)CC4)cn3)c21` [I-588, 7-((5-(4-hydroxypiperidin-1-yl)pyridin-2-yl)amino)-4-(pyrrolo[1,2-b]pyridazin-4-yl)-2,3-dihydro-1H-pyrrolo[3,4-c]pyridin-1-one] stands more than 1000 nM; under `Cc1nc(Nc2cnc(-c3ccnc4c3ccn4C)c3c2C(=O)NC3)ccc1N1CCN(C)CC1` [I-589, 4-(1-methyl-1H-pyrrolo[2,3-b]pyridin-4-yl)-7-((6-methyl-5-(4-methylpiperazin-1-yl)pyridin-2-yl)amino)-2.3-dihydro-1H-pyrrolo[3,4-c]pyridin-1-one], less than 100 nM; under `O=C1NCc2c(-c3ccnc4cnccc34)ncc(Nc3ccc(N4CCC(O)CC4)cn3)c21` [I-592, 7-((5-(4-hydroxypiperidin-1-yl)pyridin-2-yl)amino)-4-(1,7-naphthyridin-4-yl)-2,3-dihydro-1H-pyrrolo[3,4-c]pyridin-1-one], more than 1000 nM.
Take `CN(C)C[C@@H]1CN(c2ccc(Nc3ccc(-c4cnc5cc(Cl)ccn45)c4c3C(=O)NC4)nc2)CCO1` [I-593, (R)-4-(7-chloroimidazo [1,2-a]pyridin-3-yl)-7-((5-(2-((dimethylamino)-methyl)mor-pholino)pyridin-2-yl)amino)isoin-dolin-1-one]: the IC50 is less than 100 nM.
Under `C[C@@H]1CC[C@@](C)(O)CN1c1ccc(Nc2ccc(-c3cnn4c3CCCC4)c3c2C(=O)NC3)nc1` [I-598, 7-((5-((2R,5R)-5-hydroxy-2,5-dimethyl-piperidin-1-yl)pyridin-2-yl)amino)-4-(4,5,6,7-tetrahydropyra-zolo[1,5-a]pyridin-3-yl)isoindolin-1-one] stands less than 100 nM; under `CN(C)C[C@@H]1CN(c2ccc(Nc3ccc(-c4cnc5cc(F)ccn45)c4c3C(=O)NC4)nc2)CCO1` [I-603, (R)-7-((5-(2-((dimethylamino)-methyl)mor-pholino)pyridin-2-yl)amino)-4-(7-fluoroimidazo [1,2-a]pyridin-3-yl)isoindolin-1-one], less than 100 nM; under `CN(C)C[C@H]1CN(c2ccc(Nc3ccc(-c4cnc5cc(F)ccn45)c4c3C(=O)NC4)nc2)CCO1` [I-604, (S)-7-((5-(2-((dimethylamino)-methyl)mor pholino)pyridin-2-yl)amino)-4-(7-fluoroimidazo [1,2-a]pyridin-3-yl)isoindolin-1-one], less than 100 nM.
Take `Cc1ccn2c(-c3ccc(Nc4ccc(CN5CCN(C)CC5)cn4)c4c3CNC4=O)cnc2c1F` [I-605, 4-(8-fluoro-7-methylimidazo [1,2-a]pyridin-3-yl)-7-((5-((4-methylpiperazin-1-yl)methyl)pyri-din-2-yl)amino)isoin-dolin-1-one]: the IC50 is less than 100 nM.
Regarding `O=C1NCc2c(-c3cnc4cc(C(F)F)ccn34)ccc(Nc3ccc(C4(O)CCOCC4)cn3)c21` [I-608, 4-(7-(difluoromethyl)-imidazo[1,2-a]pyridin-3-yl)-7-((5-(4-hydroxytetra-hydro-2H-pyran-4-yl)pyridin-2-yl)amino)isoin-dolin-1-one], the IC50 is less than 100 nM.
On to `O=C1NCc2c(-c3cnc4cc(C(F)F)ccn34)ccc(Nc3ccc([C@@]4(O)CCOC4)cn3)c21` [I-610, (S)-4-(7-(difluoromethyl)-imidazo[1,2-a]pyridin-3-yl)-7-((5-(3-hydroxytetra-hydrofuran-3-yl)pyridin-2-yl)amino)isoin-dolin-1-one], for which the concentration for half-maximal inhibition (IC50) was less than 100 nM.
Under `CO[C@@]1(CN(C)C)CCCN(c2ccc(Nc3ccc(-c4cnc5cc(F)ccn45)c4c3C(=O)NC4)nc2)C1` [I-611, (R)-7-((5-(3-((dimethylamino)-methyl)-3-methoxy-piperidin-1-yl)pyridin-2-yl)amino)-4-(7-fluoroimidazo [1,2-a]pyridin-3-yl)isoindolin-1-one] stands less than 100 nM; under `CO[C@]1(CN(C)C)CCCN(c2ccc(Nc3ccc(-c4cnc5cc(F)ccn45)c4c3C(=O)NC4)nc2)C1` [I-612, (S)-7-((5-(3-((dimethylamino)-methyl)-3-methoxy-piperidin-1-yl)pyridin-2-yl)amino)-4-(7-fluoroimidazo [1,2-a]pyridin-3-yl)isoindolin-1-one], less than 100 nM; under `CN1CC[C@]12CCN(c1cccc(Nc3cnc(-c4ccnc5c4ccn5C)c4c3C(=O)NC4)n1)C2` [I-615, (R)-7-((6-(1-methyl-1.6-diazaspiro[3,4]octan-6-yl)pyridin-2-yl)amino)-4-(1-methyl-1H-pyrrolo[2,3-b]pyridin-4-yl)-2,3-dihydro-1H-pyrrolo[3,4-c]pyridin-1-one], 100 to 1000 nM.
Take `CN1CC[C@@]12CCN(c1cccc(Nc3cnc(-c4ccnc5c4ccn5C)c4c3C(=O)NC4)n1)C2` [I-616, (S)-7-((6-(1-methyl-1,6-diazaspiro[3,4]octan-6-yl)pyridin-2-yl)amino)-4-(1-methyl-1H-pyrrolo[2,3-b)pyridin-4-yl)-2,3-dihydro-1H-pyrrolo[3,4-c]pyridin-1-one]: the IC50 was less than 100 nM.
On to `CN(C)C(C)(C)[C@@H]1CN(c2ccc(Nc3ccc(-c4cnc5cnccn45)c4c3C(=O)NC4)nc2)CCO1` [I-617, (S)-7-((5-(2-(2-(dimethylami-no)propan-2-yl)morpho-lino)pyridin-2-yl)amino)-4-(imidazo[1,2-a]pyrazin-3-yl)isoindolin-1-one], for which the concentration for half-maximal inhibition (IC50) is less than 100 nM.
On to `CN(C)C(C)(C)[C@H]1CN(c2ccc(Nc3ccc(-c4cnc5cnccn45)c4c3C(=O)NC4)nc2)CCO1` [I-618, (R)-7-((5-(2-(2-(dimethylami-no)propan-2-yl)morpho-lino)pyridin-2-yl)amino)-4-(imidazo[1,2-a]pyrazin-3-yl)isoindolin-1-one], for which the IC50 is less than 100 nM.
As for `CC(C)(O)[C@H]1COCCN(c2ccc(Nc3ccc(-c4cnc5cc(F)ccn45)c4c3C(=O)NC4)nc2)C1` [I-626, (R)-4-(7-fluoroimidazo [1,2-a]pyridin-3-yl)-7-((5-(6-(2-hydroxypropan-2-yl)-1,4-oxazepan-4-yl)pyridin-2-yl)amino)isoin-dolin-1-one], the IC50 is less than 100 nM.
For `CC(C)(O)[C@@H]1COCCN(c2ccc(Nc3ccc(-c4cnc5cc(F)ccn45)c4c3C(=O)NC4)nc2)C1` [I-627, (S)-4-(7-fluoroimidazo [1,2-a]pyridin-3-yl)-7-((5-(6-(2-hydroxypropan-2-yl)-1,4-oxazepan-4-yl)pyridin-2-yl)amino)isoin-dolin-1-one], the IC50 is less than 100 nM.
Take `CN1C[C@@H]2CCN(c3cccc(Nc4cnc(-c5ccnc6c5ccn6C)c5c4C(=O)NC5)n3)[C@@H]2C1` [I-630, 4-(1-methyl-1H-pyrrolo[2,3-b]pyridin-4-yl)-7-((6-((3aS, 6aS)-5-methylhexahy-dropyrrolo[3,4-b]pyrrol-1(2H)-yl)pyridin-2-yl)amino)-2,3-dihydro-1H-pyrrolo[3,4-c]pyridin-1-one]: the IC50 was less than 100 nM.
Consider `CN1C[C@H]2CCN(c3cccc(Nc4cnc(-c5ccnc6c5ccn6C)c5c4C(=O)NC5)n3)[C@H]2C1` [I-631, 4-(1-methyl-1H-pyrrolo[2,3-b]pyridin-4-yl)-7-((6-((3aR,6aR)-5-methylhexahy-dropyrrolo[3,4-b]pyrrol-1(2H)-yl)pyridin-2-yl)amino)-2,3-dihydro-1H-pyrrolo[3,4-c]pyridin-1-one], for which the IC50 is more than 1000 nM.
For `O=C1NCc2c(-c3cncn4ccnc34)ncc(Nc3ccc(N4CCC(O)CC4)cn3)c21` [I-632, 7-((5-(4-hydroxy-piperidin-1-yl)pyridin-2-yl)amino)-4-(imidazo[1,2-c]pyrimidin-8-yl)-2,3-dihydro-1H-pyrrolo[3,4-c]pyridin-1-one] the value was more than 1000 nM.
Under `CN(C)Cc1cc(Nc2ccc(-c3cnc4cc(Cl)ccn34)c3c2C(=O)NC3)ncc1C1(O)CCOCC1` [I-633, 4-(7-chloroimidazo [1,2-a]pyridin-3-yl)-7-((4-((dimethylamino)-methyl)-5-(4-hydroxytetra-hydro-2H-pyran-4-yl)pyridin-2-yl)amino)isoin-dolin-1-one] stands less than 100 nM; under `C[C@H](O)[C@H]1CN(c2ccc(Nc3ccc(-c4cnc5cc(F)ccn45)c4c3C(=O)NC4)nc2)CCO1` [I-634, 4-(7-fluoroimidazo[1,2-a]pyridin-3-yl)-7-((5-((R)-2-((S)-1-hydroxyethyl)morpholino)pyridin-2-yl)amino)isoindolin-1-one], less than 100 nM; under `C[C@@H](O)[C@@H]1CN(c2ccc(Nc3ccc(-c4cnc5cc(F)ccn45)c4c3C(=O)NC4)nc2)CCO1` [I-635, 4-(7-fluoroimidazo[1,2-a]pyridin-3-yl)-7-((5-((S)-2-((R)-1-hydroxyethyl)morpholino)pyridin-2-yl)amino)isoindolin-1-one], less than 100 nM.
For the compound `Cc1cc(Nc2cnc(-c3ccnc4c3ccn4C)c3c2C(=O)NC3)nc(N2CC[C@H]3CNC[C@H]32)c1` [I-641, 7-((6-((3aS.6aS)-hcxahydropyrr-olo[3,4-b]pyrrol-1(2H)-yl)-4-methylpyridin-2-yl)amino)-4-(1-methyl-1H-pyrrolo[2,3-b]pyridin-4-yl)-2,3-dihydro-1H-pyrrolo[3,4-c]pyridin-1-one], the IC50 was less than 100 nM.

For the origin of these results see US11021481B2, “Substituted isoindolin-1-ones and 2,3-dihydro-1h-pyrrolo[3,4-c]pyridin-1-ones as HPK1 antagonists” (Nimbus Saturn, Inc., priority 2019, dated 2021).
